Like-named read-outs stand apart in the source and are kept apart here.

20 compounds from patent US7994185B2, “Benzene sulfonamide thiazole and oxazole compounds” (Glaxo Smith Kline LLC, priority 2008, dated 2011) can be followed below.

Assay [1] deals with Human melanoma cancer cells (SK-MEL-28). As to the kind of experiment: Cell growth inhibition assay (CellTiter-Glo), SK-MEL-28. The format is cell-based.
For assay [2], the target named is T1, BRAFV600E full-length (amino acids 2-766) (Homo sapiens, UniProt P15056, V600E).
T1 construct: His6-tagged BRAFV600E full-length (amino acids 2-766); His6; made in house; host or cells: baculovirus expression system (insect cells)
Kind of assay: B-Raf Accelerated MEK ATPase assay (BRAMA). The format is biochemical. The following applies: categorized. Put shortly: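 Coupled-enzyme readout: ADP generated by MEK-mediated ATP hydrolysis, uncoupled from ERK phosphorylation, is linked to NADH oxidation through pyruvate kinase and lactate dehydrogenase.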

The test system of assay [3] is Human colon tumor cells (Colo205). Kind of assay: Cell growth inhibition assay (CellTiter-Glo), Colo205. Format: cell-based. Here is the method:
Human colon tumor cells (Colo205) were cultured in RPMI (Mediatech 50-020-PB) containing 10% FBS and 1% penicillin-streptomycin.
The next day, compounds were diluted as follow: For 96-well assays, 13.5 μL of compound in DMSO were diluted using nine (9) serial 1:3 dilutions of 4.5 μL in 9 μL of DMSO. Medium (270 μL/well of RPMI with 10% FBS and 1% penicillin-streptomycin) was added to the plates. Aliquots (7 μL) were added to cells in the final assay giving a final DMSO concentration of 0.2%. For 384-well assays, 15 μL of compound in DMSO were diluted using nine (9) serial 1:3 dilutions of 5 μL in 10 μL of DMSO, followed by a further dilution of 5 μL of compound with 95 μL of medium, of which 2 μL were added to cells in the final assay giving a final DMSO concentration of 0.2%. Cells were incubated at 37° C., 5% CO2 for 3 days.
Total ATP was measured (as a surrogate estimate of cell number) using CellTiter-Glo® reagent (Promega G7571). Briefly, plates were removed from the incubator and allowed to equilibrate to room temperature for 30 minutes. CellTiter-Glo® (25 μL or 55 μL for 384-well or 96-well assays, respectively) reagent was added to each well and plates were shaken on an orbital plate shaker for 2 minutes. Plates were incubated without shaking for a further 30 minutes and read on an LJL Analyst GT reader in luminometer mode with an integration time of 0.5 seconds per well. Percent inhibition of cell growth was calculated relative to DMSO vehicle-treated control wells.

The mark [4] stands for this setting: SK-MEL-28, 72 h, Table 3a, 3 days incubation, read-out: Activity in SK-MEL-28 Tumor Cells.
Setting [5] is: SK-MEL-28, Table 3b, later runs, average for the one or more runs, categorized, read-out: IC50 for SK-MEL-28.
[6] abbreviates: B-Raf Activity, Table 1a, highest pIC50 for the one or more runs.
Setting [7] is: B-Raf pIC50, Table 1b, later runs, average pIC50 for the one or more runs.
The mark [8] stands for this setting: COLO 205, 72 h, Table 2a, 3 days incubation, read-out: Activity in Colo205 Tumor Cells.
The mark [9] stands for this setting: COLO 205, Table 2b, later runs, average for the one or more runs, categorized, read-out: IC50 for Colo205.
[10] abbreviates: Table 1b, later runs, average pIC50 for the one or more runs, read-out: B-Raf pIC50 (converted).

T1 sequence (P15056 2-766 V600E): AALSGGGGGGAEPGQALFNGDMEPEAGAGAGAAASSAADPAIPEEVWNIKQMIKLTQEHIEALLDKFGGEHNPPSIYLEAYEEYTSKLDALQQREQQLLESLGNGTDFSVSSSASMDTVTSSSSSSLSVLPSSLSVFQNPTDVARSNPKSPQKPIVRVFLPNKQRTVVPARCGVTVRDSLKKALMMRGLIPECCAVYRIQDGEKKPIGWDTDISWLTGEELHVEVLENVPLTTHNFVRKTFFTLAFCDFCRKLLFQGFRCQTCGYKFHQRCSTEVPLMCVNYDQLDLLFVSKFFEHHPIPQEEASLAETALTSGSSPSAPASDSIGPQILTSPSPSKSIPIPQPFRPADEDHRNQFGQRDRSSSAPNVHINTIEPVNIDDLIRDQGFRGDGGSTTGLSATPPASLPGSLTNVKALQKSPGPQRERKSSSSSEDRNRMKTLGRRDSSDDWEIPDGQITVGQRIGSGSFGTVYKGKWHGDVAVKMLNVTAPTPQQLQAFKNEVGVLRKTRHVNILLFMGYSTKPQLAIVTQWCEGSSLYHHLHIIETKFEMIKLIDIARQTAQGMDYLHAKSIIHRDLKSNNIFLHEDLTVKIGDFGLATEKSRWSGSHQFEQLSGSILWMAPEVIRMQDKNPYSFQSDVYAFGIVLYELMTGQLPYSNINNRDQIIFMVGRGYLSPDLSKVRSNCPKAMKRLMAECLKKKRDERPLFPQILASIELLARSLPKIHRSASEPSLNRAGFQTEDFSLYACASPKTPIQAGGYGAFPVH

Take `CC(C)(C)c1nc(-c2cccc(NS(=O)(=O)c3cc(F)ccc3F)c2F)c(-c2ccnc(NC3CCN(S(C)(=O)=O)CC3)n2)s1` [Example 130]: the IC50 is less than 100 nM in assay [1] (setting [4]); less than 100 nM in assay [1] (setting [5]); less than 100 nM in assay [2] (setting [6]); not above 3.16 nM in assay [2] (setting [7]); less than 100 nM in assay [3] (setting [8]); less than 100 nM in assay [3] (setting [9]).
As to `CC(C)(C)c1nc(-c2cccc(NS(=O)(=O)c3cccnc3)c2F)c(-c2ccnc(N)n2)s1` [Example 230, N-{3-[5-(2-amino-4-pyrimidinyl)-2-(1,1-dimethylethyl)-1,3-thiazol-4-yl]-2-fluorophenyl}-3-pyridinesulfonamide], the IC50 in assay [1] (setting [5]) is less than 100 nM; in assay [2] (setting [7]), not above 3.16 nM; in assay [3] (setting [9]), less than 100 nM.
For `CC(C)c1nc(-c2ccc(F)c(NS(=O)(=O)C3CC3)c2)c(-c2ccnc(NCCS(C)(=O)=O)n2)s1` [Example 55, N-{2-fluoro-5-[2-(1-methylethyl)-5-(2-{[2-(methylsulfonyl)ethyl]amino}-4-pyrimidinyl)-1,3-thiazol-4-yl]phenyl}cyclopropanesulfonamide], the IC50 is more than 1000 nM in assay [1] (setting [4]); 1000 to 10000 nM in assay [1] (setting [5]); 100 to 1000 nM in assay [2] (setting [6]); 31.6 to 1000 nM in assay [2] (setting [7]); 100 to 1000 nM in assay [3] (setting [8]); 100 to 1000 nM in assay [3] (setting [9]).
Take `CC(C)(C)c1nc(-c2cccc(NS(=O)(=O)c3ccco3)c2Cl)c(-c2ccnc(N)n2)s1` [Example 259, N-{3-[5-(2-amino-4-pyrimidinyl)-2-(1,1-dimethylethyl)-1,3-thiazol-4-yl]-2-chlorophenyl}-2-furansulfonamide]: the IC50 in assay [1] (setting [5]) is less than 100 nM; in assay [2] (setting [7]) it was not above 3.16 nM; in assay [3] (setting [9]) it was less than 100 nM.
On to `CC(C)(O)CCc1nccc(-c2sc(C(C)(C)C)nc2-c2cccc(NS(=O)(=O)c3cc(F)ccc3F)c2F)n1` [Example 250, N-(3-{2-(1,1-dimethylethyl)-5-[2-(3-hydroxy-3-methylbutyl)-4-pyrimidinyl]-1,3-thiazol-4-yl}-2-fluorophenyl)-2,5-difluorobenzenesulfonamide], for which the IC50 was 100 to 1000 nM in assay [1] (setting [5]), 3.16 to 31.6 nM in assay [2] (setting [10]) and less than 100 nM in assay [3] (setting [9]).
In the case of `O=S(=O)(Nc1cccc(-c2nc(C3CCOCC3)sc2-c2ccncn2)c1Cl)c1cc(F)ccc1F` [Example 243, N-{2-chloro-3-[5-(4-pyrimidinyl)-2-(tetrahydro-2H-pyran-4-yl)-1,3-thiazol-4-yl]phenyl}-2,5-difluorobenzenesulfonamide], the IC50 is less than 100 nM in assay [1] (setting [5]), not above 3.16 nM in assay [2] (setting [7]) and less than 100 nM in assay [3] (setting [9]).
As to `COCCCNc1nccc(-c2sc(C(C)C)nc2-c2ccc(F)c(NS(=O)(=O)c3c(F)cccc3F)c2)n1` [Example 168], the IC50 is 100 to 1000 nM in assay [1] (setting [4]); 100 to 1000 nM in assay [1] (setting [5]); 31.6 to 1000 nM in assay [2] (setting [7]); 100 to 1000 nM in assay [3] (setting [8]); 100 to 1000 nM in assay [3] (setting [9]).
Turning to `CC(C)(C)c1nc(-c2cccc(NS(=O)(=O)c3ccccn3)c2F)c(-c2ccnc(N)n2)s1` [Example 278, N-{3-[5-(2-amino-4-pyrimidinyl)-2-(1,1-dimethylethyl)-1,3-thiazol-4-yl]-2-fluorophenyl}-2-pyridinesulfonamide], the IC50 in assay [1] (setting [5]) is 100 to 1000 nM; in assay [2] (setting [10]), 3.16 to 31.6 nM; in assay [3] (setting [9]), 100 to 1000 nM.
`CC(C)c1nc(-c2ccc(F)c(NS(=O)(=O)c3cc(F)ccc3F)c2)c(-c2ccnc(NCC3CCNCC3)n2)s1` [Example 128]: the IC50 in assay [1] (setting [4]) is more than 1000 nM; in assay [2] (setting [6]), less than 100 nM; in assay [2] (setting [10]) it was 3.16 to 31.6 nM; in assay [3] (setting [8]), more than 1000 nM; in assay [3] (setting [9]) it was 1000 to 10000 nM.
On to `O=S(=O)(Nc1cccc(-c2nc(N3CCOCC3)sc2-c2ccncn2)c1F)c1cc(F)ccc1F` [Example 227, 2,5-difluoro-N-{2-fluoro-3-[2-(4-morpholinyl)-5-(4-pyrimidinyl)-1,3-thiazol-4-yl]phenyl}benzenesulfonamide], for which the IC50 is less than 100 nM in assay [1] (setting [5]), not above 3.16 nM in assay [2] (setting [7]) and less than 100 nM in assay [3] (setting [9]).
`CC(C)c1nc(-c2ccc(F)c(NS(=O)(=O)c3cc(F)ccc3F)c2)c(-c2ccnc(NCC3CCN(S(C)(=O)=O)CC3)n2)s1` [Example 129]: the IC50 in assay [1] (setting [4]) was 100 to 1000 nM; in assay [1] (setting [5]) it was 100 to 1000 nM; in assay [2] (setting [6]), less than 100 nM; in assay [2] (setting [10]), 3.16 to 31.6 nM; in assay [3] (setting [8]), 100 to 1000 nM; in assay [3] (setting [9]) it was 100 to 1000 nM.
On to `Nc1nccc(-c2oc(N3CCCC3)nc2-c2cccc(NS(=O)(=O)c3c(F)cccc3F)c2)n1` [Example 110, N-{3-[5-(2-Amino-4-pyrimidinyl)-2-(1-pyrrolidinyl)-1,3-oxazol-4-yl]phenyl}-2,6-difluorobenzenesulfonamide], for which the IC50 in assay [1] (setting [5]) is 1000 to 10000 nM; in assay [2] (setting [6]), 100 to 1000 nM; in assay [2] (setting [7]) it was 31.6 to 1000 nM; in assay [3] (setting [9]) it was 1000 to 10000 nM.
For the compound `CC(C)(C)c1nc(-c2cccc(NS(=O)(=O)c3cc(F)ccc3F)c2F)c(-c2ccnc(NCCNS(C)(=O)=O)n2)s1` [Example 199], the IC50 in assay [1] (setting [4]) was less than 100 nM; in assay [1] (setting [5]), less than 100 nM; in assay [2] (setting [6]), less than 100 nM; in assay [2] (setting [7]), not above 3.16 nM; in assay [3] (setting [8]) it was less than 100 nM; in assay [3] (setting [9]), less than 100 nM.
`Cc1nccc(-c2sc(C(C)(C)C)nc2-c2cccc(NS(=O)(=O)c3ccco3)c2Cl)n1` [Example 263, N-{2-chloro-3-[2-(1,1-dimethylethyl)-5-(2-methyl-4-pyrimidinyl)-1,3-thiazol-4-yl]phenyl}-2-furansulfonamide]: the IC50 in assay [1] (setting [5]) was 100 to 1000 nM; in assay [2] (setting [7]), not above 3.16 nM; in assay [3] (setting [9]) it was 100 to 1000 nM.
On to `CC(=O)NCCNc1nccc(-c2sc(C(C)C)nc2-c2ccc(F)c(NS(=O)(=O)c3cc(F)ccc3F)c2)n1` [Example 186], for which the IC50 was 100 to 1000 nM in assay [1] (setting [4]); 100 to 1000 nM in assay [1] (setting [5]); less than 100 nM in assay [2] (setting [6]); 3.16 to 31.6 nM in assay [2] (setting [10]); 100 to 1000 nM in assay [3] (setting [8]); 100 to 1000 nM in assay [3] (setting [9]).
`CC(C)(C)c1nc(-c2cccc(NS(=O)(=O)c3c(F)cccc3F)c2F)c(-c2ccnc(NC3CCN(S(C)(=O)=O)CC3)n2)s1` [Example 78, N-{3-[2-(1,1-Dimethylethyl)-5-(2-{[1-(methylsulfonyl)-4-piperidinyl]amino}-4-pyrimidinyl)-1,3-thiazol-4-yl]-2-fluorophenyl}-2,6-difluorobenzenesulfonamide]: the IC50 in assay [1] (setting [4]) was less than 100 nM; in assay [1] (setting [5]), less than 100 nM; in assay [2] (setting [6]), less than 100 nM; in assay [2] (setting [7]), not above 3.16 nM; in assay [3] (setting [8]) it was less than 100 nM; in assay [3] (setting [9]) it was less than 100 nM.
Consider `CC(C)c1nc(-c2ccc(F)c(NS(=O)(=O)c3ccco3)c2)c(-c2ccnc(NC3CCN(S(C)(=O)=O)CC3)n2)s1` [Example 151], for which the IC50 is 100 to 1000 nM in assay [1] (setting [4]); 100 to 1000 nM in assay [1] (setting [5]); less than 100 nM in assay [2] (setting [6]); 3.16 to 31.6 nM in assay [2] (setting [10]); 100 to 1000 nM in assay [3] (setting [8]); 100 to 1000 nM in assay [3] (setting [9]).
As for `CC(C)CNc1nccc(-c2sc(C(C)(C)C)nc2-c2ccc(F)c(NS(=O)(=O)c3c(F)cccc3F)c2)n1` [Example 46, N-[5-(2-(1,1-Dimethylethyl)-5-{2-[(2-methylpropyl)amino]-4-pyrimidinyl}-1,3-thiazol-4-yl)-2-fluorophenyl]-2,6-difluorobenzenesulfonamide], the IC50 in assay [1] (setting [4]) was 100 to 1000 nM; in assay [1] (setting [5]), 100 to 1000 nM; in assay [2] (setting [6]), less than 100 nM; in assay [2] (setting [10]) it was 3.16 to 31.6 nM; in assay [3] (setting [8]), 100 to 1000 nM; in assay [3] (setting [9]) it was 100 to 1000 nM.
Take `CC(C)c1nc(-c2ccc(F)c(NS(=O)(=O)c3cc(F)ccc3F)c2)c(-c2ccnc(NC3CCN(C(=O)OC(C)(C)C)CC3)n2)s1` [Example 124]: the IC50 in assay [1] (setting [4]) was 100 to 1000 nM; in assay [1] (setting [5]), 100 to 1000 nM; in assay [2] (setting [6]) it was less than 100 nM; in assay [2] (setting [7]), 31.6 to 1000 nM; in assay [3] (setting [8]), 100 to 1000 nM; in assay [3] (setting [9]), 100 to 1000 nM.
Turning to `CC(C)(C)c1nc(-c2cccc(NS(=O)(=O)c3ccsc3)c2F)c(-c2ccnc(N)n2)s1` [Example 233, N-{3-[5-(2-amino-4-pyrimidinyl)-2-(1,1-dimethylethyl)-1,3-thiazol-4-yl]-2-fluorophenyl}-3-thiophenesulfonamide], the IC50 was less than 100 nM in assay [1] (setting [5]), not above 3.16 nM in assay [2] (setting [7]) and less than 100 nM in assay [3] (setting [9]).
